Measured values published in publication PMC11858051, “PK/PD Analysis of High-Dose Daptomycin Use in the Treatment of Bone and Joint Infections: Data from a Real-World Setting” (Microorganisms, 2025).

What was measured:
[1] = human, in vivo
Procedure: This is a retrospective, monocentric study, including adult patients with a suspected or documented diagnosis of Gram-positive BJI who received daptomycin and whose plasma concentrations were measured once the steady state was reached. The study was approved by the Institutional Review Board of University of Udine (Prot IRB: 266/2023). We included all patients who were hospitalized at our University Hospital from July 2022 to December 2023. Data were retrieved from the hospital’s electronic registry, selecting all TDM performed by the Clinical Pharmacology Institute of ASU FC in the time frame of interest and then identifying the analyses required by the orthopedic wards (see Figure 1).
The peak and trough concentrations of daptomycin were determined through blood samples collected 30 min after the drug infusion and before dosing, respectively, on day 3 of therapy, once steady state was achieved. The drug clearance was estimated as apparent clearance, calculated as the […].
Daptomycin concentrations were measured by a validated High-Performance Liquid Chromatography–Ultraviolet (HPLC-UV) method previously published, using Nexera-i 2040 LC, Shimadzu® (Shimadzu USA Manufacturing INC, Canby, OR, USA).

[2] = C-reactive protein as surrogate efficacy marker during TDM; type: in vivo, human
Procedure: Therefore, we attempted to correlate the targeted AUC0–24h with CRP levels measured after treatment. The CRP was obtained at the time of diagnosis and at the end of treatment or between stages in two-stage exchange arthroplasty.

[3] = PK/PD target attainment at first TDM (eAUC0–24h and trough thresholds)
Procedure: All patients performed daptomycin TDM according to the clinical practice, and its daily area under the concentration–time curve (eAUC0–24h; including eAUC24–48h in case of other day administration, meaning when the drug dose was given every 48 h instead of every 24 h as indicated in the SmPC as the standard dose) was estimated according to the following Equation (1) reported in the literature [18, 19], based on daptomycin trough and peak plasma concentrations: (1) AUC0–24 h = 0.5 × t^′×Cmax +∫t^′infinityCmax ×e^−kel×(t)dt− ∫24infinityCmin ×e^−kel×(t)dt
For the analysis of the safety profile of daptomycin, we considered the main PK parameters expressing the overall exposure to the antibiotic and its property to be cleared, such as eAUC0–24h and the trough plasma concentrations, respectively. For the efficacy daptomycin PK/PD targets, we considered the main PK parameter indicating the daily exposure to daptomycin which is represented by the eAUC0–24h and we combined this with the pertinent PD parameter of interest of bacterial disease which is the Minimum Inhibitory Concentration (MIC) of the isolated pathogen.

[4] = single patient with CPK 1000 U/L

SMILES: CCCCCCCCCC(=O)N[C@@H](Cc1c[nH]c2ccccc12)C(=O)N[C@H](CC(N)=O)C(=O)N[C@@H](CC(=O)O)C(=O)N[C@@H]1C(=O)NCC(=O)N[C@@H](CCCN)C(=O)N[C@@H](CC(=O)O)C(=O)N[C@H](C)C(=O)N[C@@H](CC(=O)O)C(=O)NCC(=O)N[C@H](CO)C(=O)N[C@@H]([C@H](C)CC(=O)O)C(=O)N[C@@H](CC(=O)c2ccccc2N)C(=O)O[C@@H]1C [daptomycin, Daptomycin]
- estimated AUC0–24h, maximum value [1]: 2263 µg·h/mL
- estimated AUC0–24h, minimum value [1]: 395.7 µg·h/mL
- exposure in females compared with males (eAUC0–24h, trough, peak, clearance, also dose-adjusted) [1]: Females are overexposed to daptomycin compared with males
- median dose-adjusted eAUC0–24h (eAUC0–24h/D), BMI > 25 kg/m^2 [1]: 112.6
- median dose-adjusted eAUC0–24h (eAUC0–24h/D), BMI ≤ 25 kg/m^2 [1]: 89.58
- median eAUC between 24 and 48 h after dosing (eAUC24–48h), other day administration [1]: 339.8 µg·h/mL
- median eAUC within 24 h from dosing, other day administration [1]: 1060 µg·h/mL
- median estimated AUC0–24h [1]: 996.3 µg·h/mL
- median estimated drug clearance [1]: 12.2 mL/min
- median CRP during TDM ([2]; 155 measurements, median): 28.99 mg/L
- median CRP when eAUC0–24h >939 mg·h/L ([2]; aggressive eAUC0–24h group, Mann–Whitney p = 0.029 vs <939): 17.47 mg/L
- median CRP when eAUC0–24h < 939 mg·h/L ([2]; eAUC0–24h < 939 mg·h/L group): 40.60 mg/L
- cases with increase in absolute eosinophil count at follow-up (132 eosinophil count measurements at basal time and during TDM): 108 cases
- other adverse events (during therapy): No other adverse events were reported
- eAUC0–24h of the patient with high CPK [4]: 1051 µg·h/mL
- plasma peak concentration of the patient with high CPK [4]: 84.4 mg/L
- plasma trough concentration of the patient with high CPK [4]: 18.7 mg/L
- plasma CPK concentration reached in the one patient with high CPK (single patient, baseline 325 U/L): 1000 U/L
- patients not receiving adequate doses for the PK/PD efficacy and safety targets ([3]; dosing suggested in the SmPC): 68.8%
- patients underexposed (eAUC0–24h < 666 mg·h/L) ([3]; first TDM, 6 of 77 patients, doses according to SmPC): 7.8%
- patients with high eAUC0–24h to monitor (939–1174 mg·h/L) and trough <24.3 mg/L ([3]; first TDM, 16 of 77 patients): 20.8%
- patients with eAUC0–24h > 1174 mg·h/L ([3]; first TDM, 26 of 77 patients): 33.8%
- patients on target (eAUC0–24h 666–939 mg·h/L and trough < 24.3 mg/L) ([3]; first TDM, 27 of 77 patients): 35.1%
